Assay results: publication PMC7719768, “Glycogen Phosphorylase: A Drug Target of Amino Alcohols in Echinococcus granulosus, Predicted by a Computer-Aided Method” (Frontiers in Microbiology, 2020)

Legend:
[1] = target: T1, Rabbit muscle Gp (recombinant rabbit Gp) (Oryctolagus cuniculus, UniProt P00489); assay: glycogen degradation coupled to phosphoglucomutase and glucose-6-phosphate dehydrogenase, NADPH at […] nm; assay type: biochemical; details: read-out: IC50/LC50 (μM) / Gp / Rabbit muscle
T1 construct: gene PYGM; called recombinant rabbit Gp in the methods
T1 sequence (P00489 2-843): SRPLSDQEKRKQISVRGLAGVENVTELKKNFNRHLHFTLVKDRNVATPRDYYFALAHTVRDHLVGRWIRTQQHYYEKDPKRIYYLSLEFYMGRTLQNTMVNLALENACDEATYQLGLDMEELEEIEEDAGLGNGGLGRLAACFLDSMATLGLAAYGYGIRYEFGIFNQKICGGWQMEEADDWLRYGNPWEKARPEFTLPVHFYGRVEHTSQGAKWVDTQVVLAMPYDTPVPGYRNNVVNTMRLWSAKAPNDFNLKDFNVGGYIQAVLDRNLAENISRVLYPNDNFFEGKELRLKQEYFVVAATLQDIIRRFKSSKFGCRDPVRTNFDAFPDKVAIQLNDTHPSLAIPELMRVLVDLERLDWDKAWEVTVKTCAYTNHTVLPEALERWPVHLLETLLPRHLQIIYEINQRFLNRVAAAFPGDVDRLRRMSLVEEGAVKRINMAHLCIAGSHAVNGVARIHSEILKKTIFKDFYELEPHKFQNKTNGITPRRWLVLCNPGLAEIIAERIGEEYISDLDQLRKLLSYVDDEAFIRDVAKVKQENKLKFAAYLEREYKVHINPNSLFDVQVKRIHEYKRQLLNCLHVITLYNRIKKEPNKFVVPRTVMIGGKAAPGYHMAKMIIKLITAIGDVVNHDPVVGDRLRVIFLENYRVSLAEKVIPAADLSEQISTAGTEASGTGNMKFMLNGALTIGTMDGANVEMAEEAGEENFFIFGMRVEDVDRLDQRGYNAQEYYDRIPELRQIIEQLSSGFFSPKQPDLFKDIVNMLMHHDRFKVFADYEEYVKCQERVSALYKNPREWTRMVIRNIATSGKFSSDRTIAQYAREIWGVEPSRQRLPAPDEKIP

[2] = target: T2, E. granulosus PSC Gp (EgGps: EgGp1 and EgGp2); assay: as above; assay type: biochemical, Echinococcus granulosus; details: protoscolex homogenate; 2 mg/ml glycogen, 1 mM AMP, 5 mM MgCl2, Tris-HCl, 25 °C; 2 min pre-incubation; read-out: IC50/LC50 (μM) / Gp / E. granulosus PSC
T2 construct: native enzyme in protoscolex homogenate, not purified; band at 96 kD; MN562583 = EgGp1, MN562584 = EgGp2; EgrG_000501500.1 is printed for Gp without saying which gene

| Structure (SMILES) | IC50 [1] | IC50 [2] |
| --- | --- | --- |
| OC(c1cc(C(F)(F)F)nc2c(C(F)(F)F)cccc12)C1CCCCN1 (stereo not shown) [MEF, mefloquine] | > 438 µM | 128 µM |
| C[C@H]1[C@H](C)CC[C@]2(C(=O)O)CC[C@]3(C)C(=CC[C@@H]4[C@@]5(C)CC[C@H](O)C(C)(C)[C@@H]5CC[C@]43C)[C@H]12 [UA, ursolic acid] | 5.47 µM | > 438 µM |
